Reference: patent US20260034075A1, “CHOLINE CARBOXYLIC ACID BASED IONIC LIQUIDS AS ANTIMICROBIAL AGENTS” (University of Mississippi, priority 2022, published 2026)

How the values were obtained:
Assay type in all cases: cell-based
[1] = test system: MRSA [BAA-1708]; test: Growth inhibition / MBC of Methicillin Resistant Staphylococcus aureus (MRSA); conditions: Table 2; 1:2 mole ratio ILs
Procedure: (§1) Bacterial Cell Culturing. Expression cells from frozen stock were streaked onto a kanamycin-selected lysogeny broth (LBKan) agar plate using a sterile loop and incubated overnight at 37° C. One colony was then taken from the plate the next day to inoculate 50 mL of sterile LBKan broth and shaken at 37° C. until reaching a growth concentration of 4×10^8 CFU/mL. This protocol was used for bacterial cell culture preparation in all of the experiments described below.
Growth Inhibition of Methicillin Resistant Staphylococcus Aureus (MRSA). 10% (w/v) solutions of IL in sterile water were prepared similarly to the E. coli MBC experiments. ILs with anion chain lengths of 8-12 carbons at 1:2 mole ratio of choline to anion were added to MRSA at varying concentrations to determine the lowest concentration in which growth was inhibited. Concentrations were then compared to values obtained for E. coli for each solution.

[2] = test system: E. coli [BL21(DE3)]; test: Minimal Bactericidal Concentration (MBC) measurements, E. coli
Procedure: as §1
Minimal Bactericidal Concentration (MBC) Measurements. E. coli cells were cultured as described above and aliquoted into sterile tubes. 1%, 10%, and 100% (w/v) solutions of IL in sterile water (correcting for water percentage of the IL) were prepared and sonicated for 15 minutes at 40° C. before addition to the liquid culture. IL solutions were then added to E. coli at varying percentages (v/v), allowing calculation of the actual concentration of IL that was added to the culture. 100 μL of each solution was then spread onto an LBKan agar plate and incubated overnight at 37° C. […] Each IL solution was tested in triplicate.

[3] = test system: Human embryonic kidney (HEK-293) cells
Procedure: Cytotoxicity Studies. Human embryonic kidney (HEK-293) cells were treated in vitro with four of the top candidates (CADA 1:1, CADA 1:2, CA2DE 1:2, and CA3DE 1:2) to determine the concentration at which the IL dosage is toxic to human cells. 1% (w/v) solutions of each IL in sterile water were prepared similarly to the MBC experiments before addition at five different concentrations. The HEK cells were incubated with the IL treatments for 24 hours and then prepared with CellTiter-Glo(R) Luminescent Cell Viability reagent (100 μL per well). Brightfield microscopy images were used to qualitatively depict the concentration at which the cells were no longer viable, while a 96-well plate reader was used to quantitatively determine the percent viability of the cells at each concentration of the ILs. Quantitative measurements were performed in triplicate.
Human Biocompatibility Studies. […]
The viability of the cells was then quantified by preparing the IL-treated cells with 100 μL of CellTiter-Glo(R) Luminescent Cell Viability reagent in each well and measuring the luminescence on the plate reader. […] The results are expressed as percent viability and present as mean±standard deviation of three independent experiments (FIGS. 8A-8D). […]

[4] = test system: E. coli; test: E. coli kinetic study (OD600 over 16 hours, first-order kinetics fit)
Procedure: E. coli Kinetic Study. A 96-well plate was filled with 180 μL of E. coli cells that were cultured as mentioned above and treated with 20 μL CADA 1:1 of concentrations ranging from the lethal concentration to one-sixteenth of that concentration to determine how the growth inhibition is affected with changing concentration of the IL. 20 μL of growth media was added to the “untreated” cells such that all wells contained a total volume of 200 μL. The plate was heated to 37° C. with triplicate OD600 measurements taken every 20 minutes over the course of 16 hours with a Biotek Synergy H1 microplate reader.
Bactericidal and Bacteriostatic Activity Kinetics. […] CADA 1:1 was employed instead of CADA 1:2 in this study because of its lowered turbidity in comparison. 180 μL of liquid E. coli culture was added to each well of a 96-well plate and brought up to 200 μL with either IL treatment or growth media alone if untreated. […] However, the cells treated with sublethal concentrations of IL still show what seem to be minor inhibitory interactions with the IL before exiting the lag phase and starting to grow. […] The turbidity of longer chain choline carboxylic acid-based ILs is quite high in aqueous solution and can falsely be determined as growth in OD measurements. Previous studies have shown that the critical micellar concentration (CMC) tends to […] with alkyl chain length and ionic strength, which could potentially affect antimicrobial efficacy. Therefore, IL solutions in sterile water at the same concentrations used to treat the bacteria were utilized as a control and subtracted from the wells with E. coli cells receiving IL treatment.
Integration of Growth Inhibition Following First-Order Kinetics. […] This was achieved by plotting In([A]T/[A]0) vs. time during the growth period to produce a linear representation of the logarithmic growth. Once the integrations were performed and plotted, rate constants were extracted with uncertainty from the slope of the trendlines. For the untreated cells and cells treated with sublethal concentrations, the logarithmic growth was positive, therefore, the rate constant should be positive. […] The rate of inhibition (k=0.0055±0.0002) was almost one-third of the growth rate of the cells that received no treatment, meaning that the inhibition is occurring immediately and for the duration of the study, suppressing the natural growth of the cells by 70%.

[5] = Table 1, lowest IL concentration with no growth on LBKan agar plate, triplicate

Compound	MRSA MBC [1]	E. coli MBC / killing efficacy concentration [2]	E. coli MBC [2, 5]	E. coli MBC ([2]; Table 2, comparison with MRSA)	percent viability [3]	suppression of the natural growth of the cells ([4]; lethal concentration)	rate of inhibition k ([4]; lethal concentration, first-order fit of OD600)	OD600 course at lethal concentration ([4]; lethal concentrations, 16 hours)	delay of normal growth after the untreated cells entered the log phase ([4]; sublethal doses, extended lag phase)	growth rate relative to the rate of the untreated cells ([4]; sublethal treatment)	growth rate constant k ([4]; sublethal treatment, first-order fit of OD600)
Choline Decanoate 1:2 [CADA 1:2]	2230 µM	560 µM	560 µM	560 µM	> 60%	–	–	–	–	–	–
CCCCCCCCCC(=O)[O-].C[N+](C)(C)CCO [CADA 1:1, Choline Decanoate 1:1]	–	–	3480 µM	–	over 97%	70%	0.0055±0.0002	inhibited immediately with a steady decrease in OD600	about two	20-25%	0.0039±0.0002
